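Dose response: 5 concentrations. Exposure: 48 h. Format: 96-well plates. Endpoint: linear interpolation; highest concentration if not reached. At the TGI there is no net growth.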
Legend:
Assay in all cases: NCI tumour cell line growth inhibition, 48 h
[1] = test system: 786-0 renal
[2] = test system: A498 renal
[3] = test system: A549 NSCLC
[4] = test system: ACHN renal
[5] = test system: BT-549 breast
[6] = test system: CAKI-1 renal
[7] = test system: CCRF-CEM leukemia
[8] = test system: EKVX NSCLC
[9] = test system: HCC-2998 colon
[10] = test system: HCT-116 colon
[11] = test system: HCT-15 colon
[12] = test system: HL-60(TB) leukemia
[13] = test system: HOP-62 NSCLC
[14] = test system: HOP-92 NSCLC
[15] = test system: HS 578T breast
[16] = test system: HT29 colon
[17] = test system: IGROV1 ovarian
[18] = test system: K-562 leukemia
[19] = test system: KM12 colon
[20] = test system: LOX IMVI melanoma
[21] = test system: M14 melanoma
[22] = test system: MALME-3M melanoma
[23] = test system: MCF7 breast
[24] = test system: MDA-MB-435
[25] = test system: MDA-N
[26] = test system: MOLT-4 leukemia
[27] = test system: NCI-H226 lung
[28] = test system: NCI-H23 lung
[29] = test system: NCI-H460 lung
[30] = test system: NCI-H522 lung
[31] = test system: NCI/ADR-RES ovarian
[32] = test system: OVCAR-3 ovarian
[33] = test system: OVCAR-4 ovarian
[34] = test system: OVCAR-5 ovarian
[35] = test system: OVCAR-8 ovarian
[36] = test system: PC-3 prostate
[37] = test system: RPMI-8226 leukemia
[38] = test system: RXF 393 renal
[39] = test system: SF-268 CNS
[40] = test system: SF-295 CNS
[41] = test system: SF-539 CNS
[42] = test system: SK-MEL-2 melanoma
[43] = test system: SK-MEL-28 melanoma
[44] = test system: SK-OV-3 ovarian
[45] = test system: SN12C renal
[46] = test system: SNB-19 CNS
[47] = test system: SNB-75 CNS
[48] = test system: SR leukemia
[49] = test system: SW-620 colon
[50] = test system: TK-10 renal
[51] = test system: U251 CNS
[52] = test system: UACC-257 melanoma
[53] = test system: UACC-62 melanoma
[54] = test system: UO-31 renal
[55] = test system: COLO 205 colon
[56] = test system: DU-145 prostate
[57] = test system: MDA-MB-231 breast
[58] = test system: SK-MEL-5 melanoma

Measured: TGI

Cc1cc2c(cc1C)[n+]([O-])c(NCCCN(C)C)c(C#N)[n+]2[O-]
not listed: [55] | [56] | [57] | [58]
> 100 µM: all other assays above

CCOC(=O)Cc1cc(=O)oc2cc(O)ccc12
not listed: [9] | [13] | [14] | [23] | [33]
> 100 µM: all other assays above

Reference: PubChem BioAssay (NCI)
